Source: patent US7109216B2 (priority 2001, dated 2006)
Read-outs that look alike come from different tables or passages of the source.

Legend:
[1] = biological target: T1, human cannabinoid CB1 receptor (Homo sapiens, UniProt P21554); assay: Cannabinoid CB1 antagonistic activity, forskolin-induced cAMP accumulation in CHO cells; type: cell-based; set-up: expressed in transfected cells; host or cells: CHO cells
Protocol: The cannabinoid CB1 antagonistic activity of compounds of the invention was determined by functional studies using CHO cells in which human cannabinoid CB1 receptors were stably expressed. Adenylyl cyclase was stimulated using forskolin and measured by quantifying the amount of accumulated cyclic AMP. Concomitant activation of CB1 receptors by CB1 receptor agonists (e.g. CP-55,940 or (R)-WIN-55,212–2) can attenuate the forskolin-induced accumulation of cAMP in a concentration-dependent manner. This CB1 receptor-mediated response can be antagonized by CB1 receptor antagonists such as the compounds of the invention.

[2] = biological target: T1, human cannabinoid CB1 receptor; assay: biochemical; type: binding; set-up: expressed in transfected cells; host or cells: Chinese hamster ovary (CHO) cells, membrane preparation; details: [3H]CP-55,940 radioligand, CHO cell membranes stably transfected with human CB1
Protocol: After incubation of a freshly prepared cell membrane preparation with the [^3H]-ligand, with or without addition of compounds of the invention, separation of bound and free ligand was performed by filtration over glassfiber filters. Radioactivity on the filter was measured by liquid scintillation counting.

[3] = antagonism of CB1 agonist (e.g. CP-55,940 or (R)-WIN-55,212-2) effect on forskolin-induced cAMP accumulation, CHO cells expressing human CB1, read-out: hCB1 pA2 (converted)

T1 sequence (P21554 whole entry): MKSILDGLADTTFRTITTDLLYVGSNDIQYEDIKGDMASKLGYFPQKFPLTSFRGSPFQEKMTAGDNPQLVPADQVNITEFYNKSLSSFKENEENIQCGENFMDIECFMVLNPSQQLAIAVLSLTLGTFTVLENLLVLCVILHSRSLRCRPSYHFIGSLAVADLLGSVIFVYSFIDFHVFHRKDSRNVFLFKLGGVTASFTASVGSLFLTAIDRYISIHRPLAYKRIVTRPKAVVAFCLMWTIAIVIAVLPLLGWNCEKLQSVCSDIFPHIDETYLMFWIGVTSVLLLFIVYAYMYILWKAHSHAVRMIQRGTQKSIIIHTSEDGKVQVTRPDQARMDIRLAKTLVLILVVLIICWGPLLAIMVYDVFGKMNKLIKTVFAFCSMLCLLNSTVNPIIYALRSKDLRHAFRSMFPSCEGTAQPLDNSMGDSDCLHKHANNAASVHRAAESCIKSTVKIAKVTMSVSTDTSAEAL

**Q.** Which “hCB1 pA2” value ([1]; antagonism of CB1 agonist (e.g. CP-55,940 or (R)-WIN-55,212-2) effect on forskolin-induced cAMP accumulation, CHO cells expressing human CB1) does the source give for O=C(NN1CCCCC1)c1cn(-c2ccc(Cl)cc2)c(-c2ccc(Cl)cc2Cl)n1 [Example 1, 1-(4-chlorophenyl)-2-(2,4-dichlorophenyl)-N-(piperidin-1-yl)-1H-imidazole-4-carboxamide] here?
**A.** 8.2

**Q.** And the Ki ([2]; hCB1 pKi)?
**A.** 12.6 nM

**Q.** Which results are given for O=C(NN1CCCC1)c1cn(-c2ccc(Cl)cc2)c(-c2ccc(Cl)cc2Cl)n1 [Example 2, 1-(4-Chlorophenyl)-2-(2,4-dichlorophenyl)-N-(pyrrolidin-1-yl)-1H-imidazole-4-carboxamide]?
**A.** Kb [1, 3]: 25.1 nM; Ki ([2]; hCB1 pKi): 100 nM

**Q.** Which results are given for CC(C)(C)ONC(=O)c1cn(-c2ccc(Cl)cc2)c(-c2ccc(Cl)cc2Cl)n1 [Example 3, N-(t-Butoxy)-1-(4-chlorophenyl)-2-(2,4-dichlorophenyl)-1H-imidazole-4-carboxamide]?
**A.** Kb [1]: 31.6 nM; Ki ([2]; read-out: hCB1 pKi (converted)): 158 nM

**Q.** What does the source list for O=C(NC1CCCCC1)c1cn(-c2ccc(Cl)cc2)c(-c2ccc(Cl)cc2Cl)n1 [Example 5, 1-(4-Chlorophenyl)-N-cyclohexyl-2-(2,4-dichlorophenyl)-1H-imidazole-4-carboxamide]?
**A.** Kb [1, 3]: 7.94 nM; Ki ([2]; hCB1 pKi): 79.4 nM

**Q.** Which Kb [1, 3] does the source give for CN(Cc1ccccc1)C(=O)c1cn(-c2ccc(Cl)cc2)c(-c2ccc(Cl)cc2Cl)n1 [Example 6, N-(Benzyl)-1-(4-chlorophenyl)-2-(2,4-dichlorophenyl)-N-methyl-1H-imidazole-4-carboxamide] here?
**A.** 50.1 nM

**Q.** And the Ki ([2]; hCB1 pKi)?
**A.** 63.1 nM

**Q.** With Cc1c(C(=O)NN2CCCCC2)nc(-c2ccc(Cl)cc2)n1-c1ccc(Cl)cc1Cl [Example 10, 2-(4-chlorophenyl)-1-(2,4-dichlorophenyl)-5-methyl-N-(piperidin-1-yl)-1H-imidazole-4-carboxamide] as the molecule, how does the Kb [1, 3] read?
**A.** 7.94 nM

**Q.** And the Ki ([2]; hCB1 pKi)?
**A.** 316 nM

**Q.** Which Kb [1, 3] does the source give for Cc1c(C(=O)NN2CCCCC2)nc(-c2ccc(Cl)cc2Cl)n1-c1ccc(Cl)cc1 [Example 12, 1-(4-Chlorophenyl)-2-(2,4-dichlorophenyl)-5-methyl-N-(piperidin-1-yl)-1H-imidazole-4-carboxamide] here?
**A.** 1.26 nM

**Q.** And the Ki ([2]; hCB1 pKi)?
**A.** 12.6 nM

**Q.** What does the source list for Cc1c(C(=O)NOC(C)(C)C)nc(-c2ccc(Cl)cc2Cl)n1-c1ccc(Cl)cc1 [Example 13, N-(t-Butoxy)-2-(2,4-dichlorophenyl)-1-(4-chlorophenyl)-5-methyl-1H-imidazole-4-carboxamide]?
**A.** Kb [1, 3]: 3.16 nM; Ki ([2]; hCB1 pKi): 79.4 nM

**Q.** For CCc1c(C(=O)NOC(C)(C)C)nc(-c2ccc(Cl)cc2Cl)n1-c1ccc(Cl)cc1 [Example 14, N-(t-Butoxy)-1-(4-chlorophenyl)-2-(2,4-dichlorophenyl)-5-ethyl-1H-imidazole-4-carboxamide], which Kb [1, 3] is on record?
**A.** 0.126 nM

**Q.** And the Ki ([2]; hCB1 pKi)?
**A.** 100 nM

**Q.** With CCc1c(C(=O)NN2CCCCC2)nc(-c2ccc(Cl)cc2Cl)n1-c1ccc(Cl)cc1 [Example 15, 1-(4-Chlorophenyl)-2-(2,4-dichlorophenyl)-5-ethyl-N-(piperidin-1-yl)-1H-imidazole-4-carboxamide] as the molecule, how does the Kb [1, 3] read?
**A.** 0.501 nM

**Q.** And the Ki ([2]; hCB1 pKi)?
**A.** 10 nM

**Q.** Which Kb [1] does the source give for Cc1c(C(=O)NOC(C)(C)C)nc(-c2ccc(Cl)cc2Cl)n1-c1ccc(Br)cc1 [Example 16, 1-(4-Bromophenyl)-N-(t-butoxy)-2-(2,4-dichlorophenyl)-5-methyl-1H-imidazole-4-carboxamide] here?
**A.** 15.8 nM

**Q.** What does the source list for CCCCCNC(=O)c1nc(-c2ccc(Cl)cc2Cl)n(-c2ccc(Br)cc2)c1CC [Example 21, 1-(4-Bromophenyl)-2-(2,4-dichlorophenyl)-5-ethyl-N-(n-pentyl)-1H-imidazole-4-carboxamide]?
**A.** Kb [1, 3]: < 1 nM; Ki ([2]; hCB1 pKi): 31.6 nM

**Q.** With O=C(NN1CCCCC1)c1cn(-c2ccc(Br)cc2)c(-c2ccc(Cl)cc2Cl)n1 [Example 22, 1-(4-bromophenyl)-2-(2,4-dichlorophenyl)-N-(piperidin-1-yl)-1H-imidazole-4-carboxamide] as the molecule, how does the Kb [1] read?
**A.** 10 nM

**Q.** And the Ki ([2]; read-out: hCB1 pKi (converted))?
**A.** 398 nM

**Q.** Which Kb [1] does the source give for CC(C)(C)ONC(=O)c1cn(-c2ccc(Br)cc2)c(-c2ccc(Cl)cc2Cl)n1 [Example 23, N-(t-Butoxy)-1-(4-bromophenyl)-2-(2,4-dichlorophenyl)-1H-imidazole-4-carboxamide] here?
**A.** 1 nM

**Q.** And the Ki ([2]; read-out: hCB1 pKi (converted))?
**A.** 398 nM

**Q.** What does the source list for O=C(NN1CC2CCCC2C1)c1cn(-c2ccc(Cl)cc2)c(-c2ccc(Cl)cc2Cl)n1 (centres unmarked) [Example 26, 1-(4-Chlorophenyl)-2-(2,4-dichlorophenyl)-N-(hexahydrocyclopenta[c]pyrrol-2(1H)-yl)-1H-imidazole-4-carboxamide]?
**A.** Kb [1, 3]: 10 nM; Ki ([2]; hCB1 pKi): 501 nM

**Q.** With O=C(NCc1ccc(F)cc1)c1cn(-c2ccc(Cl)cc2)c(-c2ccc(Cl)cc2Cl)n1 [Example 27, 1-(4-Chlorophenyl)-2-(2,4-dichlorophenyl)-N-(4-fluorobenzyl)-1H-imidazole-4-carboxamide] as the molecule, how does the Kb [1, 3] read?
**A.** 3.98 nM

**Q.** And the Ki ([2]; hCB1 pKi)?
**A.** 63.1 nM

**Q.** For Cc1c(C(=O)NN2CCCCC2)nc(-c2ccc(Cl)cc2Cl)n1-c1ccc(C(F)(F)F)cc1 [Example 45, 2-(2,4-dichlorophenyl)-5-methyl-N-(piperidin-1-yl)-1-(4-(trifluoromethyl)phenyl)-1H-imidazole-4-carboxamide], which Kb [1, 3] is on record?
**A.** 1.58 nM

**Q.** What about the Ki ([2]; hCB1 pKi) of the same molecule?
**A.** 15.8 nM

**Q.** What does the source list for Cc1c(C(=O)NN2CCOCC2)nc(-c2ccc(Cl)cc2Cl)n1-c1ccc(Cl)cn1 [Example 52, 1-(5-Chloropyridin-2-yl)-2-(2,4-dichlorophenyl)-5-methyl-N-(4-morpholinyl)-1H-imidazole-4-carboxamide]?
**A.** Kb [1]: 2.51 nM; Ki ([2]; read-out: hCB1 pKi (converted)): 501 nM

**Q.** With Cc1c(C(=O)NCCF)nc(-c2ccc(Cl)cc2Cl)n1-c1ccc(Cl)cc1 [Example 85, 1-(4-Chlorophenyl)-2-(2,4-dichlorophenyl)-N-(2-fluoroethyl)-5-methyl-1H-imidazole-4-carboxamide] as the molecule, how does the melting point read?
**A.** 128 to 133 °C

**Q.** And the Ki ([2]; hCB1 pKi)?
**A.** 25.1 nM

**Q.** Which melting point does the source give for Cc1c(C(=O)NCc2ccc(F)cc2)nc(-c2ccc(Cl)cc2Cl)n1-c1ccc(Cl)cc1 [Example 90, 1-(4-Chlorophenyl)-2-(2,4-dichlorophenyl)-N-(4-fluorobenzyl)-5-methyl-1H-imidazole-4-carboxamide] here?
**A.** 165 to 166 °C

**Q.** And the Ki ([2]; hCB1 pKi)?
**A.** 10 nM

**Q.** Which melting point does the source give for Cc1c(C(=O)NN2CCCCC2)nc(-c2cc(Cl)ccc2Cl)n1-c1ccccc1 [Example 95, 2-(2,5-Dichlorophenyl)-5-methyl-1-phenyl-N-(piperidin-1-yl)-1H-imidazole-4-carboxamide] here?
**A.** 227 °C

**Q.** And the Ki ([2]; hCB1 pKi)?
**A.** 63.1 nM

**Q.** What does the source list for Cc1c(C(=O)NC2CCCCC2)nc(-c2cc(Cl)ccc2Cl)n1-c1ccccc1 [Example 96, N-Cyclohexyl-2-(2,5-dichlorophenyl)-5-methyl-1-phenyl-1H-imidazole-4-carboxamide]?
**A.** melting point: 236 °C; Ki ([2]; hCB1 pKi): 6.31 nM

**Q.** With Cc1c(C(=O)Nc2cccc(C(F)(F)F)c2)nc(-c2ccc(Cl)cc2Cl)n1-c1ccc(Cl)cc1 [Example 104, 1-(4-Chlorophenyl)-2-(2,4-dichlorophenyl)-5-methyl-N-(3-(trifluoromethyl)phenyl)-1H-imidazole-4-carboxamide] as the molecule, how does the melting point read?
**A.** 177 °C

**Q.** What about the Ki ([2]; hCB1 pKi) of the same molecule?
**A.** 6.31 nM

**Q.** Which melting point does the source give for Cc1c(C(=O)NCc2cccc(C(F)(F)F)c2)nc(-c2ccc(Cl)cc2Cl)n1-c1ccc(Cl)cc1 [Example 105, 1-(4-Chlorophenyl)-2-(2,4-dichlorophenyl)-5-methyl-N-(3-(trifluoromethyl)benzyl)-1H-imidazole-4-carboxamide] here?
**A.** 138 to 140 °C

**Q.** What about the Ki ([2]; hCB1 pKi) of the same molecule?
**A.** 31.6 nM

**Q.** Which results are given for O=C(NN1CCCCC1)c1nc(-c2ccc(Cl)cc2Cl)n(-c2ccc(Br)cc2)c1Cl [Example 109, 1-(4-bromophenyl)-5-chloro-2-(2,4-dichloro-phenyl)-N-(piperidin-1-yl)-1H-imidazole-4-carboxamide]?
**A.** Kb [1, 3]: 1.58 nM; Ki ([2]; hCB1 pKi): 251 nM

**Q.** For O=C(NC1CCCCC1)c1nc(-c2ccc(Cl)cc2Cl)n(-c2ccc(Cl)cc2)c1I [Example 112, 1-(4-Chlorophenyl)-N-cyclohexyl-2-(2,4-dichlorophenyl)-5-iodo-1H-imidazole-4-carboxamide], which melting point is on record?
**A.** 226 to 230 °C

**Q.** And the Ki ([2]; hCB1 pKi)?
**A.** 6.31 nM

**Q.** Which results are given for N#Cc1c(C(=O)NC2CCCCC2)nc(-c2ccc(Cl)cc2Cl)n1-c1ccc(Cl)cc1 [Example 113, 1-(4-Chlorophenyl)-5-cyano-N-cyclohexyl-2-(2,4-dichlorophenyl)-1H-imidazole-4-carboxamide]?
**A.** melting point: 157 to 158 °C; Ki ([2]; hCB1 pKi): 15.8 nM

**Q.** Which melting point does the source give for O=C(NN1CCCCC1)c1nc(-c2ccc(Cl)cc2Cl)n(-c2ccc(Cl)cc2)c1CF [Example 114, 1-(4-chlorophenyl)-2-(2,4-dichlorophenyl)-5-fluoromethyl-N-(piperidin-1-yl)-1H-imidazole-4-carboxamide] here?
**A.** 162 to 163 °C

**Q.** What about the Ki ([2]; hCB1 pKi) of the same molecule?
**A.** 63.1 nM

**Q.** For O=C(NN1CCCCC1)c1nc(-c2ccc(Cl)cc2Cl)n(-c2ccc(Cl)cc2)c1CO [Example 115, 1-(4-chlorophenyl)-2-(2,4-dichlorophenyl)-5-hydroxymethyl-N-(piperidin-1-yl)-1H-imidazole-4-carboxamide], which melting point is on record?
**A.** 212 to 214 °C

**Q.** What about the Ki ([2]; hCB1 pKi) of the same molecule?
**A.** 31.6 nM

**Q.** What does the source list for CCc1c(C(=O)NN2CCCCC2)nc(-c2ccccc2Cl)n1-c1ccc(Cl)cn1 [Example 116, 1-(5-chloropyrid-2-yl)-2-(2-chlorophenyl)-5-ethyl-N-(piperidin-1-yl)-1H-imidazole-4-carboxamide]?
**A.** melting point: 217 to 219 °C; Ki ([2]; hCB1 pKi): 12.6 nM
